SMILES strings stand for the structures.

What all share (assay type): cell-based
The target in one assay is T1, IKAROS (Homo sapiens, UniProt Q13422+Q96SW2).
T1 construct: endogenous in cells; host or cells: MV-4-11
Kind of assay: IKAROS degradation assay (Western blot, MV-4-11 cells). The settings on record: MV4-11, 6-8 h. Summed up:
(§1)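 Western blot, infrared fluorescence read-out: % degradation versus DMSO after 6-8 h compound treatment of ~10^6 cells/mL. RIPA whole-cell lysates on 4-12% gels, nitrocellulose transfer. Binned A <25%, B 25–<50%, C 50–<75%, D ≥75%.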
In general terms: Immunoblotting shows a protein as a band on a membrane.

In another assay the target is T2, CK1α (Homo sapiens, UniProt P48729+Q96SW2).
T2 construct: Whole cell extracts were prepared using RIPA buffer; endogenous in cells; host or cells: MV-4-11
Put plainly: CK1α degradation assay (Western blot, MV-4-11 cells). The settings on record: MV4-11, 6-8 h. Here is the method:
(§2) MV-4-11 cells were grown in RPMI 1640 media supplemented with 10% fetal bovine serum, streptomycin and penicillin.
(§3) Cells were cultured at approximately 10^6 cells per mL and incubated in DMSO or the indicated compound for 6-8 h. Whole cell extracts were prepared using RIPA buffer according to manufacturer's protocol (Pierce). Briefly, 3×10^6 cells were washed once in PBS, the cell pellets were resuspended in RIPA buffer and allowed to incubate for 15 minutes on ice. Cells debris was removed by centrifugation and the cleared whole cell lysates were transferred to new tubes for further analysis.
(§4) For Western blot analysis, whole cell protein extracts were separated on 4-12% SDS-polyacrylamide gels, transferred to nitrocellulose and probed with the indicated primary antibodies. Membranes were subsequently washed and probed with the appropriate IRDye secondary antibodies (LI-COR). The signal was detected using the Odyssey Imaging System (LI-COR).
(§5) The following antibodies were used in these studies: Anti-eRF3/GSPT1: Abcam, ab126090 (Cambridge, Mass.); Anti-Ikaros: Abcam, ab191394 (Cambridge, Mass.); Anti-CK1α: Abcam, ab108296 (Cambridge, Mass.); Anti-CDK9: Santa Cruz Biotechnology, sc13130 (Dallas, Tex.); Anti-CDK16: Millipore Sigma, HPA001366 (St. Louis, Mo.); 3-actin (8H10comD10) mouse monoclonal antibody: Cell Signaling Technology, #3700 (Danvers, Mass.); IRDye 680RD Goat anti-rabbit antibody: LI-COR, 926-68071 (Lincoln, Nebr.); IRDye 800CW Goat anti-mouse antibody: LI-COR, 926-32210 (Lincoln, Nebr.).
(§6) CDK9 activities are shown in Table 4 at two different concentrations. CDK16 activities are shown in Table 5 at two different concentrations. In each of Tables 1-5, the % degradation values are reported as “A”, “B”, “C”, or “D”. “A” represents a % degradation value of less than 25% (value <25%). “B” represents a % degradation value of equal to or more than 25% and less than 50% (25%≤value<50%). “C” represents a % degradation value of equal to or more than 50% and less than 75% (50%≤value<75%). “D” represents a % degradation value of equal to or more than 75% (value ≥75%).

Another assay addresses T3, GSPT1 (Homo sapiens, UniProt P15170+Q96SW2).
T3 construct: Whole cell extracts were prepared using RIPA buffer; endogenous in cells; host or cells: MV-4-11
Kind of assay: GSPT1 degradation assay (Western blot, MV-4-11 cells). The settings on record: MV4-11, 6-8 h. Here is the method: as §2, §3, §4, §5, §6

The target in a further assay is T4, CDK9 (Homo sapiens, UniProt P50750).
T4 construct: Whole cell extracts were prepared using RIPA buffer; endogenous in cells; host or cells: MV-4-11
Kind of assay: CDK9 degradation assay (Western blot, MV-4-11 cells). The settings on record: 6-8 h; for Dmax at 0.1 µM: MV4-11, 0.1 μM; for Dmax at 1 µM: MV4-11, 1 μM. Summed up: as §1

For another assay, the target named is T5, CDK16 (Homo sapiens, UniProt Q00536).
T5 construct: Whole cell extracts were prepared using RIPA buffer; endogenous in cells; host or cells: MV-4-11
Put plainly: CDK16 degradation assay (Western blot, MV-4-11 cells). The settings on record: 6-8 h; for Dmax at 0.1 µM: MV4-11, 0.1 μM; for Dmax at 1 µM: MV4-11, 1 μM. In short, it runs like this:
as §1

The subject of another assay is MOLM-13 cells. Put plainly: MOLM-13 cell viability assay (CellTiter-Glo). The settings on record: Homo sapiens, MOLM-13, 72 h, 3 days, read-out: MOLM-13 Cell Viability % DMSO at 1 μM. In short, it runs like this: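 MOLM-13 cells at 2500 cells/well were exposed to compound for 3 days at 37 °C. Viability was read by CellTiter-Glo luminescence and expressed as % of DMSO control, binned A (<50%), B (50–<70%), C (70–<90%) or D (≥90%).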
In general terms: Cellular ATP, detected with luciferase, serves as a proxy for viable cell number.

T4 sequence (P50750 whole entry): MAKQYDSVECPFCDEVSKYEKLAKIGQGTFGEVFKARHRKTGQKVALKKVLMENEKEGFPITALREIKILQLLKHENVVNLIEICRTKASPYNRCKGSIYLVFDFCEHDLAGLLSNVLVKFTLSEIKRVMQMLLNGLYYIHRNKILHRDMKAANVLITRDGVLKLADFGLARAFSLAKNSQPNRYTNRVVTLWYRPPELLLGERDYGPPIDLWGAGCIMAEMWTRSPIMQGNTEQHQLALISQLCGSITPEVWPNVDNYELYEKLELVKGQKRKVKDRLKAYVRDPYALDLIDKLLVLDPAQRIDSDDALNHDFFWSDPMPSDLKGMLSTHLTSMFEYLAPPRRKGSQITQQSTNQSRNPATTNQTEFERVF
T5 sequence (Q00536 whole entry): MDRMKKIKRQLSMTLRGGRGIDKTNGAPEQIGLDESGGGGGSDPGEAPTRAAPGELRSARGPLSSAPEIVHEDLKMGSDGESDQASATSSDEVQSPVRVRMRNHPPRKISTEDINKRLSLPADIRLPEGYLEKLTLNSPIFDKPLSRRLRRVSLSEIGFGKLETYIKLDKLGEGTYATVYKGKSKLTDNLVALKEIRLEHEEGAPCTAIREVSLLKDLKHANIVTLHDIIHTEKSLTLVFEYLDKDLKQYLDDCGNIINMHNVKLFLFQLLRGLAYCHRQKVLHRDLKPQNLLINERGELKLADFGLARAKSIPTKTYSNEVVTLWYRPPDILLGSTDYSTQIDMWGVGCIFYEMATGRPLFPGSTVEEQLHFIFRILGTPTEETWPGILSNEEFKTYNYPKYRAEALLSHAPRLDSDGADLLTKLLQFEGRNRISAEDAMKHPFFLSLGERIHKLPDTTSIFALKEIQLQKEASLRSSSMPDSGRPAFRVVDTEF
T1 sequence (Q13422 whole entry): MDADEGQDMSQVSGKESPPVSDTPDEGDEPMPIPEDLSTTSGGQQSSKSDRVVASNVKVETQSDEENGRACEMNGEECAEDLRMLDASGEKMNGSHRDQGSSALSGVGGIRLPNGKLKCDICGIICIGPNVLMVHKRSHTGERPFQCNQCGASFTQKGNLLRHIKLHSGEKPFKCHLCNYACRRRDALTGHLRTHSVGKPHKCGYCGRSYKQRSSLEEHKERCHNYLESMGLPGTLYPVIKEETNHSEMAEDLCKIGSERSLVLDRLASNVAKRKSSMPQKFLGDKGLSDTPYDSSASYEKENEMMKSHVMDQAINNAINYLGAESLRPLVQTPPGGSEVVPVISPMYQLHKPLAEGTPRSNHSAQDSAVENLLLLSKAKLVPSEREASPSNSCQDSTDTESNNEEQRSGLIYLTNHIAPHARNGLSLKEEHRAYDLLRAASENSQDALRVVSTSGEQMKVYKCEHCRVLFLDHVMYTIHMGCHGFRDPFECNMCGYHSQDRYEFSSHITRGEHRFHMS
T1 sequence (Q96SW2 whole entry): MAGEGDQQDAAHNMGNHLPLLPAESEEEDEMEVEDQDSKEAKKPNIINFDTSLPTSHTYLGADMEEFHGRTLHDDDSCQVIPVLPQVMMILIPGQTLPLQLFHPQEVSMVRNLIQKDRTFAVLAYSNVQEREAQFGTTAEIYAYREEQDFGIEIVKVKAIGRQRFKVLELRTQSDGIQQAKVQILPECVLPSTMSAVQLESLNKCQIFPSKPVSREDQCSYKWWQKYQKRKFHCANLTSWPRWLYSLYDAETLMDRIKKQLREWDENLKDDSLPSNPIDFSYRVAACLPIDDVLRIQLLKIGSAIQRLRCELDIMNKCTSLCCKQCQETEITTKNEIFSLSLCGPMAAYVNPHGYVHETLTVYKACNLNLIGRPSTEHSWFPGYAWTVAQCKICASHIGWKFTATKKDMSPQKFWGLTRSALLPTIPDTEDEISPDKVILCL
T1 sequence (Q16531 whole entry partner): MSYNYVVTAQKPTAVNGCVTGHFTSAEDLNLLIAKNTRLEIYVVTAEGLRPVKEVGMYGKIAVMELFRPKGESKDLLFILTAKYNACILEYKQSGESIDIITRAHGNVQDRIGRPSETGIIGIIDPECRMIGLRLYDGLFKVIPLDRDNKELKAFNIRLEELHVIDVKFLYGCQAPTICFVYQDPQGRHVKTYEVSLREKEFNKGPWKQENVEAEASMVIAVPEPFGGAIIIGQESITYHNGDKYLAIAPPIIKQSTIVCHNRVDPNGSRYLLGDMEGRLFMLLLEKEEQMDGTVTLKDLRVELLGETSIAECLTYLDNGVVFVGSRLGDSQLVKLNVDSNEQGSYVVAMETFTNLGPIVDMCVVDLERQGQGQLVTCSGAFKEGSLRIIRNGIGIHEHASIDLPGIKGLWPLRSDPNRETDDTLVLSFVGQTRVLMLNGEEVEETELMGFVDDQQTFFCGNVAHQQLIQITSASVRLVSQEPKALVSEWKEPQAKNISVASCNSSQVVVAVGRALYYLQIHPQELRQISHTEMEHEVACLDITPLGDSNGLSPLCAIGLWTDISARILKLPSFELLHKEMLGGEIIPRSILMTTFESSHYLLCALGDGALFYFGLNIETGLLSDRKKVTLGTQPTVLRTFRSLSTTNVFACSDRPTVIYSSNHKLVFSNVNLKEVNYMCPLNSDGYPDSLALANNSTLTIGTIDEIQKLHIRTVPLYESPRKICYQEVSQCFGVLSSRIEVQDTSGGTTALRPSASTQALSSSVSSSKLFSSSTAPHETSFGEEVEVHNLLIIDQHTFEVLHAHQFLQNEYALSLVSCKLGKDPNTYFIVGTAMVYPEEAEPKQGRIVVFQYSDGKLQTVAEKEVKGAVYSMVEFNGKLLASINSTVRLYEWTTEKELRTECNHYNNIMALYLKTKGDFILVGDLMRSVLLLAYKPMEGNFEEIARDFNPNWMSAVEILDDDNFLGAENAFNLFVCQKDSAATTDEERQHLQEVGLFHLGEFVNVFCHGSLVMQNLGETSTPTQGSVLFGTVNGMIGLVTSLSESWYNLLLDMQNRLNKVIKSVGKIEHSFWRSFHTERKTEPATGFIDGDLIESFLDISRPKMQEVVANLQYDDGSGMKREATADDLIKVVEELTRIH
T2 sequence (P48729 whole entry): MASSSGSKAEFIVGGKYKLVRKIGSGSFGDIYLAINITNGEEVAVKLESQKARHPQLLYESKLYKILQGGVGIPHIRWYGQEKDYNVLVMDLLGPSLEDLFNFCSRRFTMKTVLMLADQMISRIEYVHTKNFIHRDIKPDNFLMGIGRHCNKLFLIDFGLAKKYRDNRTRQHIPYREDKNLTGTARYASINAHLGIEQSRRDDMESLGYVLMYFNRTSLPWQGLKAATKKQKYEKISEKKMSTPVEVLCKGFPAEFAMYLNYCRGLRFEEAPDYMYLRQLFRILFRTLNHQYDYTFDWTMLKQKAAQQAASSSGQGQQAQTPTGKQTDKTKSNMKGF
T2 sequence (Q96SW2 whole entry): as the sequence (Q96SW2 whole entry) above
T2 sequence (Q16531 whole entry partner): as the sequence (Q16531 whole entry partner) above
T3 sequence (P15170 whole entry): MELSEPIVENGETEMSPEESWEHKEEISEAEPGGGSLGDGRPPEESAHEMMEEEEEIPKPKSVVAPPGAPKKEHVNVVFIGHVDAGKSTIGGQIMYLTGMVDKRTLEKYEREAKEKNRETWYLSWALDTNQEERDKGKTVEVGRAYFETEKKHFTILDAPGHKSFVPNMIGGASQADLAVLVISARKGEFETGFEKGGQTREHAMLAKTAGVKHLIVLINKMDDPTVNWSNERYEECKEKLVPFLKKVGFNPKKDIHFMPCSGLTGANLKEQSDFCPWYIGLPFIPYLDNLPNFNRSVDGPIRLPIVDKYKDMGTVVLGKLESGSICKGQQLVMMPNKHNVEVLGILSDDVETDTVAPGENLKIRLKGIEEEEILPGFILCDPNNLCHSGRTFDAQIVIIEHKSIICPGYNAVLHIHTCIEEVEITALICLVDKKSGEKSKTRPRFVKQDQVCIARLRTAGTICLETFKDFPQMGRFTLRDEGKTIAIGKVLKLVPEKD
T3 sequence (Q96SW2 whole entry): as the sequence (Q96SW2 whole entry) above
T3 sequence (Q16531 whole entry partner): as the sequence (Q16531 whole entry partner) above

Usually Dmax stands for the greatest extent of degradation seen. Lower therefore signals a partial loss of target. For orientation: viability means a read-out of living cells in per cent, often relative to untreated cells. Regarding `Cn1ncc(-c2nc(N[C@H]3CC[C@H](NCC(=O)NCCCCNCC(=O)NCc4scc5c4CN(C4CCC(=O)NC4=O)C5=O)CC3)ncc2F)c1CC1CC1` (some centres unmarked) [Compound 39, 2-(((1r,4r)-4-((4-(5-(cyclopropylmethyl)-1-methyl-1H-pyrazol-4-yl)-5-fluoropyrimidin-2-yl)amino)cyclohexyl)amino)-N-(4-((2-(((5-(2,6-dioxopiperidin-3-yl)-4-oxo-5,6-dihydro-4H-thieno[3,4-c]pyrrol-1-yl)methyl)amino)-2-oxoethyl)amino)butyl)acetamide], the Dmax at 1 µM at IKAROS was 25 to 50%; at CK1α, 25 to 50%; on GSPT1, 50 to 75%; at CDK9, not below 75%; on CDK16, not below 75%. The results for the Dmax at 0.1 µM at CDK9 and at CDK16 were 25 to 50% and less than 25%, respectively. The viability at 1 µM with MOLM-13 cells is more than 90%.
As to `Cn1ncc(-c2nc(N[C@H]3CC[C@H](NCC(=O)NCCNCC(=O)NCc4cc5c(s4)C(=O)N(C4CCC(=O)NC4=O)C5)CC3)ncc2Cl)c1CC1CC1` (some centres unmarked) [Compound 40, 2-(((1r,4r)-4-((5-chloro-4-(5-(cyclopropylmethyl)-1-methyl-1H-pyrazol-4-yl)pyrimidin-2-yl)amino)cyclohexyl)amino)-N-(2-((2-(((5-(2,6-dioxopiperidin-3-yl)-6-oxo-5,6-dihydro-4H-thieno[2,3-c]pyrrol-2-yl)methyl)amino)-2-oxoethyl)amino)ethyl)acetamide], the greatest degradation seen (Dmax) at 1 µM on IKAROS was 50 to 75%; at CK1α, 25 to 50%; on GSPT1, not below 75%; at CDK9, not below 75%; at CDK16, 50 to 75%. The results for the maximal degradation (Dmax) at 0.1 µM at CDK9 and on CDK16 were 50 to 75% and 25 to 50%, respectively. The viability at 1 µM in the assay with MOLM-13 cells was in the range of 70 to 90%.
With `Cn1ncc(-c2nc(N[C@H]3CC[C@H](NCC(=O)NCCCCNCC(=O)NCc4cc5c(s4)C(=O)N(C4CCC(=O)NC4=O)C5)CC3)ncc2Cl)c1CC1CC1` (some centres unmarked) [Compound 35, 2-(((1r,4r)-4-((5-chloro-4-(5-(cyclopropylmethyl)-1-methyl-1H-pyrazol-4-yl)pyrimidin-2-yl)amino)cyclohexyl)amino)-N-(4-((2-(((5-(2,6-dioxopiperidin-3-yl)-6-oxo-5,6-dihydro-4H-thieno[2,3-c]pyrrol-2-yl)methyl)amino)-2-oxoethyl)amino)butyl)acetamide], the Dmax at 1 µM on IKAROS was 50 to 75%; on CK1α, 25 to 50%; at GSPT1, not below 75%; on CDK9, 25 to 50%; at CDK16, 50 to 75%. In addition, the results for the maximal degradation (Dmax) at 0.1 µM on CDK9 and on CDK16 were 25 to 50% and less than 25%, respectively. Besides, the viability at 1 µM in the assay with MOLM-13 cells was more than 90%.
In the case of `Cn1ncc(-c2nc(N[C@H]3CC[C@H](NCCOCCOCCOCCOCCNc4cccc5c4C(=O)N(C4CCC(=O)NC4=O)C5=O)CC3)ncc2Cl)c1CC1CC1` (some centres unmarked) [Compound 64, 4-((14-(((1r,4r)-4-((5-chloro-4-(5-(cyclopropylmethyl)-1-methyl-1H-pyrazol-4-yl)pyrimidin-2-yl)amino)cyclohexyl)amino)-3,6,9,12-tetraoxatetradecyl)amino)-2-(2,6-dioxopiperidin-3-yl)isoindoline-1,3-dione], the Dmax at 1 µM was not below 75% at IKAROS, 25 to 50% on CK1α and not below 75% at GSPT1. For the same compound, the viability at 1 µM in the assay with MOLM-13 cells was more than 90%.
For `Cn1ncc(-c2nc(N[C@H]3CC[C@H](NCC(=O)NCCOCCOCCOCCNc4cccc5c4C(=O)N(C4CCC(=O)NC4=O)C5=O)CC3)ncc2F)c1CC1CC1` (some centres unmarked) [Compound 50, 2-(((1r,4r)-4-((4-(5-(cyclopropylmethyl)-1-methyl-1H-pyrazol-4-yl)-5-fluoropyrimidin-2-yl)amino)cyclohexyl)amino)-N-(2-(2-(2-(2-((2-(2,6-dioxopiperidin-3-yl)-1,3-dioxoisoindolin-4-yl)amino)ethoxy)ethoxy)ethoxy)ethyl)acetamido], the figures for the maximal degradation (Dmax) at 1 µM at IKAROS, on CK1α and on GSPT1 were not below 75%, 25 to 50% and 50 to 75%, respectively. In addition, the viability at 1 µM with MOLM-13 cells was more than 90%.
`CC(C)(C)c1cnc(CSc2cnc(NC(=O)C3CCN(CC(=O)NCCCCCNCC(=O)NCc4scc5c4CN(C4CCC(=O)NC4=O)C5=O)CC3)s2)o1` (centres unmarked) [Compound 33, N-(5-(((5-(tert-butyl)oxazol-2-yl)methyl)thio)thiazol-2-yl)-1-(2-((5-((2-(((5-(2,6-dioxopiperidin-3-yl)-4-oxo-5,6-dihydro-4H-thieno[3,4-c]pyrrol-1-yl)methyl)amino)-2-oxoethyl)amino)pentyl)amino)-2-oxoethyl)piperidine-4-carboxamide]: the maximal degradation (Dmax) at 1 µM on IKAROS is 50 to 75%; on CK1α, not below 75%; on GSPT1, not below 75%; on CDK9, not below 75%; on CDK16, 50 to 75%. Further, the greatest degradation seen (Dmax) at 0.1 µM was not below 75% on CDK9 and less than 25% on CDK16. Also, the viability at 1 µM in the assay with MOLM-13 cells was more than 90%.
For `Cn1ncc(-c2nc(N[C@H]3CC[C@H](NCC(=O)NCCCCCNCC(=O)NCc4cc5c(s4)C(=O)N(C4CCC(=O)NC4=O)C5)CC3)ncc2Cl)c1CC1CC1` (some centres unmarked) [Compound 30, 2-(((1r,4r)-4-((5-chloro-4-(5-(cyclopropylmethyl)-1-methyl-1H-pyrazol-4-yl)pyrimidin-2-yl)amino)cyclohexyl)amino)-N-(5-((2-(((5-(2,6-dioxopiperidin-3-yl)-6-oxo-5,6-dihydro-4H-thieno[2,3-c]pyrrol-2-yl)methyl)amino)-2-oxoethyl)amino)pentyl)acetamide], the greatest degradation seen (Dmax) at 1 µM at IKAROS was 50 to 75%; at CK1α, less than 25%; at GSPT1, 50 to 75%; at CDK9, 50 to 75%; on CDK16, 50 to 75%. Further, the Dmax at 0.1 µM on CDK9 was 50 to 75%; on CDK16, 25 to 50%. The viability at 1 µM in the assay on MOLM-13 cells is more than 90%.
On to `CC(C)(C)c1cnc(CSc2cnc(NC(=O)C3CCN(CC(=O)NCCCNCC(=O)NCc4cc5c(s4)C(=O)N(C4CCC(=O)NC4=O)C5)CC3)s2)o1` (centres unmarked) [Compound 52, N-(5-(((5-(tert-butyl)oxazol-2-yl)methyl)thio)thiazol-2-yl)-1-(2-((3-((2-(((5-(2,6-dioxopiperidin-3-yl)-6-oxo-5,6-dihydro-4H-thieno[2,3-c]pyrrol-2-yl)methyl)amino)-2-oxoethyl)amino)propyl)amino)-2-oxoethyl)piperidine-4-carboxamide], for which the values for the Dmax at 1 µM on IKAROS, on CK1α and on GSPT1 were 25 to 50%, 25 to 50% and 50 to 75%, respectively. The viability at 1 µM in the assay on MOLM-13 cells is more than 90%.
As to `Cn1ncc(-c2nc(N[C@H]3CC[C@H](NCC(=O)NCCNC(=O)NCc4cc5c(s4)C(=O)N(C4CCC(=O)NC4=O)C5)CC3)ncc2Cl)c1CC1CC1` (some centres unmarked) [Compound 45, 2-(((1r,4r)-4-((5-chloro-4-(5-(cyclopropylmethyl)-1-methyl-1H-pyrazol-4-yl)pyrimidin-2-yl)amino)cyclohexyl)amino)-N-(2-(3-((5-(2,6-dioxopiperidin-3-yl)-6-oxo-5,6-dihydro-4H-thieno[2,3-c]pyrrol-2-yl)methyl)ureido)ethyl)acetamide], the values for the maximal degradation (Dmax) at 1 µM on IKAROS, on CK1α and at GSPT1 were 25 to 50%, less than 25% and 25 to 50%, respectively. Further, the viability at 1 µM in the assay on MOLM-13 cells was more than 90%.

The values above are taken from patent US20220153751A1, “BIFUNCTIONAL COMPOUNDS” (BioTheryX, Inc., priority 2018, published 2022).
